Where two headings read alike, the source gives them in different places.
What was measured:
[1] = Inhibition of adjuvant arthritis in rat, preventive effect (paw volume); assay type: in vivo, SD rats
Procedure: (§1) Five SD rats 7 to 8 weeks old weighing about 150 g. were used as one group. A dispersion of mycobacterium butyricium in liquid parrafin in a concentration of 12 mg./ml. was injected intracutaneously into the footpad of the right hind foot in a dose of 0.05 ml./rat to cause an adjuvant arthritis (AA). For 30 days after the injection of the adjuvant, the volume of both hind feet was measured by a mercury plethysmography and AA was estimated from the obtained measurements.
(§2) With respect to Compound Nos. 1, 3 and 10, the preventive effect on AA was examined. The oral administration of the compound to be tested was begun at the same time as the administration of the adjuvant and continued for 30 days once a day. The same test was carried out with D-penicillamine and Levamisole.

[2] = Acute toxicity (LD50); settings: mouse, in vivo, mice, 7 days observation
Procedure: Eight male ddY mice 5 to 6 weeks old weighing 25 to 30 g. were used as one group. A 5% suspension of the compound to be tested in gum arabic was administered intraperitoneally, intravenously or orally using a stomach tube. The animals were kept under observation for 7 days. The numbers of dead animals were counted and the LD50 values were calculated by the Van der Warden method.

[3] = Change in body weight of rat with adjuvant arthritis; assay type: in vivo, SD rats; settings: D-penicillamine or Levamisole; 1st, 10th, 20th and 30th day
Procedure: as §1, §2
During the test of the preventive effect on AA as described in the above (1), the body weight of each rat was measured on 1st, 10th, 20th, and 30th day.

[4] = prior art; cited from earlier work
[5] = Clinical test, Case 2; assay type: in vivo, patient
[6] = Effect on carrageenan-induced edema in rat; assay type: in vivo, SD rats; settings: dose 0.005 to 0.05 μg./animal, oral, 30 minutes before carrageenan
Procedure: Five SD rats 7 to 8 weeks old weighing about 150 g. were used as one group. A 1% dispersion of carrageenan was injected intracutaneously into the foot pad of the right hind foot in a dose of 0.1 ml./rat. For 6 hours after the injection, the volume of the foot subjected to the injection was measured by a mercury plethysmography and the carrageenan-induced edema was estimated from the obtained measurements. Compound No. 3 was orally administered 30 minutes before the injection of the carrageenan dispersion.

[7] = Clinical test, Case 1; assay type: in vivo, patient; settings: 50 μg. once a day, oral
[8] = Pharmacological activities and side-effects, general statements
[9] = dose 0.05 μg./animal, oral, once a day for 30 days
[10] = dose 1.5 mg./animal (even at a higher dose)
[11] = 100 μg. once a day, oral, after 5 days
[12] = after 3 weeks, twice a week after 7 days, oral

CCCCCCCCCCCCN1C(C)=CSC1=CC=C(C=Cc1scc(C)[n+]1CCCCCCCCCCCC)c1scc(C)[n+]1CCCCCCCCCCCC [compound 10]
inhibition of AA, preventive effect [1, 9]: inhibit AA
LD50 at 168 h ([2]; ip, i.p., read-out: LD50 i.p.): 300 mg/kg
LD50 at 168 h ([2]; iv, i.v., read-out: LD50 i.v.): 45.2 mg/kg
LD50 at 168 h ([2]; po, p.o., read-out: LD50 p.o.): > 1400 mg/kg

c1ccc([C@H]2CN3CCSC3=N2)cc1 [Levamisole]
inhibition of AA, preventive effect [1, 10]: do not inhibit AA
change in body weight compared with Control [3]: no significant difference
toxicity of known immunomodulators [4]: severe toxicities

COc1ccc2c(c1)c(CC(=O)O)c(C)n2C(=O)c1ccc(Cl)cc1 [Indometacin, reference compound]
side-effect of the medicines used before ([5]; human, in vivo): gastric ulcer, urticaria and diarrhea
condition of the patient on previous treatment ([5]; suppository of Shiozol and that of Indometacin, before Compound No. 3): took a turn for the worse

CCCCCCCN1C(C)=CS\C1=C/C=C(/C=C/c1scc(C)[n+]1CCCCCCC)c1scc(C)[n+]1CCCCCCC
inhibition of AA, preventive effect ([1]; dose 0.005 μg./animal, oral, once a day for 30 days): inhibited AA
inhibition of AA, preventive effect [1, 9]: inhibit AA
anti-inflammatory action on carrageenan-induced edema [6]: did not show anti-inflammatory action
LD50 at 168 h ([2]; ip, i.p., read-out: LD50 i.p.): 100 mg/kg
LD50 at 168 h ([2]; iv, i.v., read-out: LD50 i.v.): 12 mg/kg
LD50 at 168 h ([2]; po, p.o., read-out: LD50 p.o.): > 1400 mg/kg
side-effect [7]: no side-effect
therapeutic effect [7]: excellent therapeutic effect
inflammation at wrist articulatio coxae and violent pain ([7]; after 5 days): almost removed
stiffness in the morning and systemic malaise ([7]; after 5 days): relieved
mobility ([7]; morning of the seventh day): could arise from a sickbed and go down the stairs with ease
systemic malaise and stiffness in the morning ([5]; 100 μg. once a day, oral, after 3 days): relieved
inflammation at the joints [5, 11]: relieved
need for suppository of Indometacin [5, 11]: no necessity for administering the suppository of Indometacin
sleep [5, 11]: became to sleep well
side-effect ([5]; 100 μg., oral): No side-effect was observed
ability to walk [5, 12]: became to be able to walk
swelling (hydrocele) at the joints [5, 12]: improved
side-effects ([8]; cytotoxicity (e.g. granulocytopenia), vomiting, nausea, pyrexia, rash and myasthenia): does not have side-effects
immunomodulating action ([8]; immunological function enhanced): shows an immunosuppressive effect
immunomodulating action ([8]; immunological function lowered): shows an immunological activating effect
immunomodulating action ([8]; normal immunological function): has no influence on the normal immunological function
known pharmacological activities [4]: antibacterial activity, the acceleration of wound healing, the stimulation of reticular hematopoietic organ and endocrine organ, and the enhancement of antibody formation

CC1=CSC(=CC=C(C=Cc2scc(C)[n+]2C)c2scc(C)[n+]2C)N1C [compound 1]
inhibition of AA, preventive effect [1, 9]: inhibit AA
LD50 at 168 h ([2]; ip, i.p., read-out: LD50 i.p.): 23.4 mg/kg
LD50 at 168 h ([2]; iv, i.v., read-out: LD50 i.v.): 6.25 mg/kg
LD50 at 168 h ([2]; po, p.o., read-out: LD50 p.o.): > 1400 mg/kg

CCCCN1C(C)=CSC1=CC=C(C=Cc1scc(C)[n+]1CCCC)c1scc(C)[n+]1CCCC [compound 2]
LD50 at 168 h ([2]; ip, i.p., read-out: LD50 i.p.): 51 mg/kg
LD50 at 168 h ([2]; iv, i.v., read-out: LD50 i.v.): 8.5 mg/kg
LD50 at 168 h ([2]; po, p.o., read-out: LD50 p.o.): > 1400 mg/kg

CCCCCCCCN1C(C)=CS\C1=C/C=C(/C=C/c1scc(C)[n+]1CCCCCCCC)c1scc(C)[n+]1CCCCCCCC
LD50 at 168 h ([2]; ip, i.p., read-out: LD50 i.p.): 120 mg/kg
LD50 at 168 h ([2]; iv, i.v., read-out: LD50 i.v.): 13.5 mg/kg
LD50 at 168 h ([2]; po, p.o., read-out: LD50 p.o.): > 1400 mg/kg

CC(C)(S)[C@@H](N)C(=O)O [D-penicillamine]
inhibition of AA, preventive effect [1, 10]: do not inhibit AA
change in body weight compared with Control [3]: no significant difference
toxicity of known immunomodulators [4]: severe toxicities

O=C([O-])c1ccccc1Nc1cc(Cl)ccc1C(=O)[O-].[Na+].[Na+] [CCA, N-(2-carboxyphenyl)-4-chloroanthranilic acid disodium salt]
toxicity of known immunomodulators [4]: severe toxicities

Source: US4464383A, “Immunomodulator containing trithiazole pentamethine cyanine derivative” (priority 1981, dated 1984)
